molecular target: Full-length inactive AKT1 (Homo sapiens, UniProt P31749); test: Inactive Akt Alpha Screen Assay; format: biochemical; conditions: AlphaScreen assay (values not marked with *); read-out: Akt1 IC50, (AlphaScreen) (μM) (or if marked with “*” HTRF assay)
Method in brief: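 AlphaScreen read-out (excitation 640 nm, emission 570 nm) after 90 min incubation at room temperature in the dark. Signal comes from crosstide phosphorylation by AKT1, which was activated by added PDK1, MAPKAPK2, ATP and lipid vesicles, captured via phospho-AKT substrate antibody and streptavidin beads.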

Sequence of Full-length inactive AKT1 (P31749 whole entry): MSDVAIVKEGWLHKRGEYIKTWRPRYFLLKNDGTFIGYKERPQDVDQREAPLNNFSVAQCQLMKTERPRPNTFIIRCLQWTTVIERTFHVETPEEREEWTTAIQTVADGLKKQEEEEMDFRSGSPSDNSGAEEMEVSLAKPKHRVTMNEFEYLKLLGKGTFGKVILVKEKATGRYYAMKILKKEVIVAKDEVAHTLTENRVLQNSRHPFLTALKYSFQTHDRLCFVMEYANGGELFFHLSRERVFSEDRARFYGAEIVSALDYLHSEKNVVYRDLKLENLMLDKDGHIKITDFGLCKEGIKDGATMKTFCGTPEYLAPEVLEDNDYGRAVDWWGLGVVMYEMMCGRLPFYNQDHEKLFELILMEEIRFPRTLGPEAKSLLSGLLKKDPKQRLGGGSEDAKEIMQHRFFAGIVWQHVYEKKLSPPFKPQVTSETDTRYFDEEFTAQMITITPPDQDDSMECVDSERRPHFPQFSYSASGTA

Point of comparison: Nc1ncccc1-c1nc2ccc(-c3cc(O)cc(F)c3)nc2n1-c1ccc(C2(N)CCC2)cc1 [Example 435, 3-{3-[4-(1-aminocyclobutyl)phenyl]-2-(2-aminopyridin-3-yl)-3H-imidazo[4,5-b]pyridin-5-yl}-5-fluorophenol], IC50 0.01 µM. Against it:
- Nc1ncccc1-c1nc2ccc(-c3cccc(O)c3F)nc2n1-c1ccc(C2(N)CCC2)cc1 [Example 445, 3-{3-[4-(1-aminocyclobutyl)phenyl]-2-(2-aminopyridin-3-yl)-3H-imidazo[4,5-b]pyridin-5-yl}-2-fluorophenol] — within 1.5-fold, 0.014 µM
- Nc1ncccc1-c1nc2ccc(-c3c[nH]c4ccncc34)nc2n1-c1ccc(C2(N)CCC2)cc1 [Example 446, 3-{3-[4-(1-aminocyclobutyl)phenyl]-5-(1H-pyrrolo[3,2-c]pyridin-3-yl)-3H-imidazo[4,5-b]pyridin-2-yl}pyridin-2-amine] — within 1.5-fold, 0.0089 µM
- Nc1ncccc1-c1nc2ccc(-c3ccnc(O)c3)nc2n1-c1ccc(C2(N)CCC2)cc1 [Example 448, 4-{3-[4-(1-aminocyclobutyl)phenyl]-2-(2-aminopyridin-3-yl)-3H-imidazo[4,5-b]pyridin-5-yl}pyridin-2-ol] — 2.6-fold lower, 0.0039 µM

same assay, conditions: values not marked with "*": AlphaScreen assay; read-out: Akt1 IC50, (AlphaScreen)

Point of comparison: COc1ccc(NC(=O)Cc2ccc(-n3c(-c4cccnc4N)nc4cccnc43)cc2)c(OC)c1 [Example 116], IC50 0.595 µM. Against it:
- Cc1cccc(C(=O)NCc2ccc(-n3c(-c4cccnc4N)nc4cccnc43)cc2)c1 [Example 53] — 4.9-fold lower, 0.122 µM

same assay, conditions: values not marked with "*"; read-out: Akt1 IC50, (AlphaScreen)

Point of comparison: Cc1cnc2c(c1)nc(-c1cccnc1N)n2-c1ccc(CNC(=O)c2cn(C)c3ccccc23)cc1 [Example 212, N-(4-(2-(2-aminopyridin-3-yl)-6-methyl-3H-imidazo[4,5-b]pyridin-3-yl)benzyl)-1-methyl-1H-indole-3-carboxamide], IC50 0.2 µM. Against it:
- Nc1ncccc1-c1nc2cc(-c3cccnc3)cnc2n1-c1ccc(CNC(=O)c2cccc(F)c2)cc1 [Example 239, N-(4-(2-(2-aminopyridin-3-yl)-6-(pyridin-3-yl)-3H-imidazo[4,5-b]pyridin-3-yl)benzyl)-3-fluorobenzamide] — 9.5-fold lower, 0.021 µM
- Cc1cnc2c(c1)nc(-c1cccnc1N)n2-c1ccc(CNC(=O)c2ccc3ncccc3c2)cc1 [Example 279, N-(4-(2-(2-aminopyridin-3-yl)-6-methyl-3H-imidazo[4,5-b]pyridin-3-yl)benzyl)quinoline-6-carboxamide] — 1.8-fold lower, 0.11 µM
- CS(=O)(=O)Nc1ccccc1-c1ccc2nc(-c3cccnc3N)n(-c3ccc(CNC(=O)c4cccc(F)c4)cc3)c2n1 [Example 313, N-(4-(2-(2-aminopyridin-3-yl)-5-(2-(methylsulfonamido)phenyl)-3H-imidazo[4,5-b]pyridin-3-yl)benzyl)-3-fluorobenzamide] — 1.7-fold lower, 0.12 µM
- Nc1ncccc1-c1nc2cc(Br)cnc2n1-c1ccc(CNS(=O)(=O)c2cccc3cccnc23)cc1 [Example 164, N-{4-[2-(2-aminopyridin-3-yl)-6-bromo-3H-imidazo[4,5-b]pyridin-3-yl]benzyl}quinoline-8-sulfonamide] — 3.1-fold higher, 0.62 µM
- CN(C)C(=O)c1cccc(-c2ccc3nc(-c4cccnc4N)n(-c4ccc(C5(N)CCC5)cc4)c3n2)c1 [Example 380, 3-(3-(4-(1-aminocyclobutyl)phenyl)-2-(2-aminopyridin-3-yl)-3H-imidazo[4,5-b]pyridin-5-yl)-N,N-dimethylbenzamide] — 61-fold lower, 0.0033 µM
- Cc1cnc2c(c1)nc(-c1cccnc1N)n2-c1ccc(CNC(=O)c2cncs2)cc1 [Example 276, N-(4-(2-(2-aminopyridin-3-yl)-6-methyl-3H-imidazo[4,5-b]pyridin-3-yl)benzyl)thiazole-5-carboxamide] — 3.9-fold higher, 0.78 µM
- Nc1ncccc1-c1nc2cc(C(F)(F)F)cnc2n1-c1ccc(CNC(=O)c2ccc(Br)cc2)cc1 [Example 187, N-{4-[2-(2-aminopyridin-3-yl)-6-(trifluoromethyl)-3H-imidazo[4,5-b]pyridin-3-yl]benzyl}-4-bromobenzamide] — 10-fold higher, 2.1 µM
- Cc1cnc2c(c1)nc(-c1cccnc1N)n2-c1ccc(CNC(=O)c2ccc(Cl)c(C)c2)cc1 [Example 272, N-(4-(2-(2-aminopyridin-3-yl)-6-methyl-3H-imidazo[4,5-b]pyridin-3-yl)benzyl)-4-chloro-3-methylbenzamide] — within 1.5-fold, 0.21 µM
- Cc1ccnc(NC(=O)c2ccc(-n3c(-c4cccnc4N)nc4cccnc43)cc2)c1 [Example 179, 4-[2-(2-aminopyridin-3-yl)-3H-imidazo[4,5-b]pyridin-3-yl]-N-(4-methylpyridin-2-yl)benzamide] — 2.6-fold higher, 0.53 µM
- Cc1cc2nc(-c3cccnc3N)n(-c3ccc(CNC(=O)c4ccccc4)cc3)c2nc1Cl [Example 346, N-(4-(2-(2-aminopyridin-3-yl)-5-chloro-6-methyl-3H-imidazo[4,5-b]pyridin-3-yl)benzyl)benzamide] — 2.3-fold lower, 0.086 µM
- Nc1ncccc1-c1nc2ccc(-c3ccncc3)nc2n1-c1ccc(C2(N)CCC2)cc1 [Example 394, 3-(3-(4-(1-aminocyclobutyl)phenyl)-5-(pyridin-4-yl)-3H-imidazo[4,5-b]pyridin-2-yl)pyridin-2-amine] — 51-fold lower, 0.0039 µM
- Cc1cnc2c(c1)nc(-c1cccnc1N)n2-c1ccc(CNC(=O)Cc2nnn[nH]2)cc1 [Example 286, N-(4-(2-(2-aminopyridin-3-yl)-6-methyl-3H-imidazo[4,5-b]pyridin-3-yl)benzyl)-2-(1H-tetrazol-5-yl)acetamide] — 3.7-fold higher, 0.74 µM
- Nc1ncccc1-c1nc2ccc(-c3ccccc3)nc2n1-c1ccc(CNC(=O)c2ccccc2)cc1 [Example 202, N-(4-(2-(2-aminopyridin-3-yl)-5-phenyl-3H-imidazo[4,5-b]pyridin-3-yl)benzyl)benzamide] — 7.4-fold lower, 0.027 µM
- Nc1ncccc1-c1nc2ccc(-c3cccc(CO)c3)nc2n1-c1ccc(C2(N)CCC2)cc1 [Example 374, (3-(3-(4-(1-aminocyclobutyl)phenyl)-2-(2-aminopyridin-3-yl)-3H-imidazo[4,5-b]pyridin-5-yl)phenyl)methanol] — 150-fold lower, 0.0013 µM
- Cc1cnc2c(c1)nc(-c1cccnc1N)n2-c1ccc(CNC(=O)c2ccc(F)cc2)cc1 [Example 228, N-(4-(2-(2-aminopyridin-3-yl)-6-methyl-3H-imidazo[4,5-b]pyridin-3-yl)benzyl)-4-fluorobenzamide] — within 1.5-fold, 0.24 µM
- Cc1ccc2nc(-c3cccnc3N)n(-c3ccc(CC(=O)Nc4ccccc4)cc3)c2n1 [Example 301, 2-(4-(2-(2-aminopyridin-3-yl)-5-methyl-3H-imidazo[4,5-b]pyridin-3-yl)phenyl)-N-phenylacetamide] — 3-fold lower, 0.066 µM
- COc1cccc(NC(=O)c2ccc(-n3c(-c4cccnc4N)nc4cccnc43)cc2)c1 [Example 184, 4-[2-(2-aminopyridin-3-yl)-3H-imidazo[4,5-b]pyridin-3-yl]-N-(3-methoxyphenyl)benzamide] — 9.5-fold higher, 1.9 µM
- Nc1ncccc1-c1nc2ccc(-c3cncnc3)nc2n1-c1ccc(C2(N)CCC2)cc1 [Example 395, 3-(3-(4-(1-aminocyclobutyl)phenyl)-5-(pyrimidin-5-yl)-3H-imidazo[4,5-b]pyridin-2-yl)pyridin-2-amine] — 20-fold lower, 0.0098 µM
- CC(=O)Nc1ccc(-c2cnc3c(c2)nc(-c2cccnc2N)n3-c2cccc(CNC(=O)c3cccc(F)c3)c2)cc1 [Example 402, N-(3-(6-(4-acetamidophenyl)-2-(2-aminopyridin-3-yl)-3H-imidazo[4,5-b]pyridin-3-yl)benzyl)-3-fluorobenzamide] — 14-fold higher, 2.83 µM
- Cc1ccc2nc(-c3cccnc3N)n(-c3ccc(CNC(=O)c4cccn4C)cc3)c2n1 [Example 262, N-(4-(2-(2-aminopyridin-3-yl)-5-methyl-3H-imidazo[4,5-b]pyridin-3-yl)benzyl)-1-methyl-1H-pyrrole-2-carboxamide] — within 1.5-fold, 0.15 µM
- CCOC(=O)Cc1ccc(-n2c(-c3cccnc3N)nc3ccc(-c4cccc(NC(C)=O)c4)nc32)cc1 [Example 243, ethyl 2-(4-(5-(3-acetamidophenyl)-2-(2-aminopyridin-3-yl)-3H-imidazo[4,5-b]pyridin-3-yl)phenyl)acetate] — 1.6-fold higher, 0.32 µM
- Cc1ccc(NC(=O)c2ccc(-n3c(-c4cccnc4N)nc4cccnc43)cc2)cc1 [Example 186, 4-[2-(2-aminopyridin-3-yl)-3H-imidazo[4,5-b]pyridin-3-yl]-N-(4-methylphenyl)benzamide] — 12-fold higher, 2.5 µM
- Nc1ncccc1-c1nc2cc(-c3ccc(C(=O)O)o3)cnc2n1-c1ccc(CNC(=O)c2ccccc2)cc1 [Example 240, 5-(2-(2-aminopyridin-3-yl)-3-(4-(benzamidomethyl)phenyl)-3H-imidazo[4,5-b]pyridin-6-yl)furan-2-carboxylic acid] — 12-fold lower, 0.016 µM
- CS(=O)(=O)NC1(c2ccc(-n3c(-c4cccnc4N)nc4ccc(-c5ccccc5)nc43)cc2)CCC1 [Example 367, N-(1-(4-(2-(2-aminopyridin-3-yl)-5-phenyl-3H-imidazo[4,5-b]pyridin-3-yl)phenyl)cyclobutyl)methanesulfonamide] — within 1.5-fold, 0.18 µM
- CCS(=O)(=O)NCc1ccc(-n2c(-c3cccnc3N)nc3cc(Br)cnc32)cc1 [Example 170, N-{4-[2-(2-aminopyridin-3-yl)-6-bromo-3H-imidazo[4,5-b]pyridin-3-yl]benzyl}ethanesulfonamide] — 2.4-fold higher, 0.49 µM
- Nc1ncccc1-c1nc2ccc(-c3cccnc3)nc2n1-c1ccc(CNC(=O)c2ccccc2)cc1 [Example 201, N-(4-(2-(2-aminopyridin-3-yl)-5-(pyridin-3-yl)-3H-imidazo[4,5-b]pyridin-3-yl)benzyl)benzamide] — 6.2-fold lower, 0.032 µM
- COc1ccccc1C(=O)NCc1ccc(-n2c(-c3cccnc3N)nc3cc(C)cnc32)cc1 [Example 221, N-(4-(2-(2-aminopyridin-3-yl)-6-methyl-3H-imidazo[4,5-b]pyridin-3-yl)benzyl)-2-methoxybenzamide] — within 1.5-fold, 0.26 µM
- COc1cccc(-c2ccc3nc(-c4cccnc4N)n(-c4ccc(C5(N)CCC5)cc4)c3n2)c1 [Example 396, 3-(3-(4-(1-aminocyclobutyl)phenyl)-5-(3-methoxyphenyl)-3H-imidazo[4,5-b]pyridin-2-yl)pyridin-2-amine] — 62-fold lower, 0.0032 µM

— patent US8501770B2 (ArQule, Inc., priority 2009, dated 2013)
